Laboratory results as given in patent US7037644B1, “Means and methods for monitoring non-nucleoside reverse transcriptase inhibitor antiretroviral therapy and guiding therapeutic decisions in the treatment of HIV/AIDS” (ViroLogic, Inc., priority 1998, dated 2006).
“Also recorded” adds a separate entry of the source.

Tests used:
[1] = tested on: RTV-209, patient 97-209 (RT E138A, Y188L); assay: Phenotypic susceptibility assay (patient RTV); assay type: cell-based, HIV-1; details: patient RTV pool
Procedure: (§1) The resistance test vectors containing a functional luciferase gene cassette were constructed and host cells were transfected with the resistance test vector DNA. The resistant test vectors contained patient-derived reverse transcriptase and protease sequences that were either susceptible or resistant to the antiretroviral agents, such as nucleoside reverse transcriptase inhibitors, non-nucleoside reverse transcriptase inhibitors and protease inhibitors. […] The IC50 values were determined by plotting percent drug inhibition vs. log10 drug concentration.
(§2) Host cells were seeded in 10-cm-diameter dishes and were transfected several days after plating with resistance test vector plasmid DNA and the envelope expression vector. […] HIV capsid protein (p24) levels in the harvested cell culture media were determined by an EIA method as described by the manufacturer (SIAC; Frederick, Md.). […] The inhibitory effect of the drug was determined using the following equation: % luciferase inhibition=1−(RLUluc [drug]÷RLUluc)×100 where RLUluc [drug] is the relative light unit of luciferase activity in infected cells in the presence of drug and RLUluc is the Relative Light Unit of luciferase activity in infected cells in the absence of drug. […]

[2] = tested on: patient 780 virus (RT K103N, P225H); assay: Phenotypic susceptibility assay (patient virus); assay type: cell-based, HIV; details: patient 780, FIGS. 8D-8F
From the text: FIGS. 8D, 8E, and 8F. Phenotypic Drug Susceptibility and Resistance Profile: Patients 780. This is a second example of the third pattern of NNRTI susceptibility/resistance. […] This pattern is characterized by a larger reduction of nevirapine suseptibility compared to the reduction of delavirdine susceptibility.
The resistance test vectors containing a functional luciferase gene cassette were constructed and host cells were transfected with the resistance test vector DNA. […] The IC50 values were determined by plotting percent drug inhibition vs. log10 drug concentration.
as §2

[3] = tested on: RTV-955, patient 98-955 (RT K101E, K103N, Y181C, G190A mixtures); assay: Phenotypic susceptibility assay (patient RTV); assay type: cell-based, HIV-1; details: patient RTV pool
Procedure: as §1, §2

[4] = tested on: RTV-302, patient 97-302 (RT K103N, I135M, T200A, P225H); assay: Phenotypic susceptibility assay (patient RTV); assay type: cell-based, HIV-1; details: patient virus RTV-302
Procedure: as §1, §2
A resistance test vector was constructed as described in example 1 from a patient sample designated as 97-302. […] An IC50 was determined for each drug tested. […]

[5] = tested on: RTV-1058 clone 10 (RT L100I, K103N, Y188L); assay: Phenotypic susceptibility assay (patient RTV clone); assay type: cell-based, HIV-1
From the text: The resistance test vectors containing a functional luciferase gene cassette were constructed and host cells were transfected with the resistance test vector DNA. The resistant test vectors contained patient-derived reverse transcriptase and protease sequences that were either susceptible or resistant to the antiretroviral agents, such as nucleoside reverse transcriptase inhibitors, non-nucleoside reverse transcriptase inhibitors and protease inhibitors. The resistance test vector viral particles produced by transfecting the resistance test vector DNA into host cells, either in the presence or absence of protease inhibitors, were used to infect target host cells grown either in the absence of NRTI or NNRTI or in the presence of increasing concentrations of the drug. The amount of luciferase activity produced in infected target host cells in the presence of drug was compared to the amount of luciferase produced in infected target host cells in the absence of drug. Drug resistance was measured as the amount of drug required to inhibit by 50% the luciferase activity detected in the absence of drug (inhibitory concentration 50%, IC50). The IC50 values were determined by plotting percent drug inhibition vs. log10 drug concentration.
Host cells were seeded in 10-cm-diameter dishes and were transfected several days after plating with resistance test vector plasmid DNA and the envelope expression vector. Transfections were performed using a calcium-phosphate precipitation procedure. The cell culture media containing the DNA precipitate was replaced with fresh medium, from one to 24 hours, after transfection. Cell culture media containing resistance test vector viral particles was harvested one to four days after transfection and was passed through a […] filter before being stored at […]. HIV capsid protein (p24) levels in the harvested cell culture media were determined by an EIA method as described by the manufacturer (SIAC; Frederick, Md.). Before infection, target cells (293 and 293/T) were plated in cell culture media. Control infections were performed using cell culture media from mock transfections (no DNA) or transfections containing the resistance test vector plasmid DNA without the envelope expression plasmid. One to three or more days after infection the media was removed and cell lysis buffer (Promega) was added to each well. Cell lysates were assayed for luciferase activity (FIG. 3). The inhibitory effect of the drug was determined using the following equation: % luciferase inhibition=1−(RLUluc [drug]÷RLUluc)×100 where RLUluc [drug] is the relative light unit of luciferase activity in infected cells in the presence of drug and RLUluc is the Relative Light Unit of luciferase activity in infected cells in the absence of drug. IC50 values were obtained from the sigmoidal curves that were generated from the data by plotting the percent inhibition of luciferase activity vs. the log10 drug concentration. The drug inhibition curves are shown in (FIG. 3).
A resistance test vector was constructed as described in Example 1 from a patient sample designated 98-1058. This patient had been previously treated with ddI, d4T, AZT, 3TC, ddC and abacavir (NRTIs), indinavir and amprenavir (PRIs) and nevirapine (an NNRTI). Isolation of viral RNA and RT/PCR was used to generate a patient derived segment that comprised viral sequences coding for all of RP and aa 1-313 of RT. The PDS was inserted into an indicator gene viral vector to generate a resistance test vector designated RTV-1058. Individual clones of RTV-1058 were selected and were then tested in a phenotypic assay to determine accurately and quantitatively the level of susceptibility to a panel of anti-retroviral drugs. The panel of antiretroviral drugs comprised members of the classes known as NRTIs (AZT, 3TC, d4T, kkI an ddC), NNRTIs (delavirdine and nevirapine), an PRIs (indinavir, nelfinavir, ritonavir, and saquinavir). […]

| SMILES | decrease in susceptibility (fold, IC50) [1] | change in susceptibility [2] | decrease in susceptibility (fold, IC50) [3] [fold] | change in susceptibility [4] | loss of susceptibility (fold, IC50) [5] |
| --- | --- | --- | --- | --- | --- |
| CC(C)Nc1cccnc1N1CCN(C(=O)c2cc3cc(NS(C)(=O)=O)ccc3[nH]2)CC1 [delavirdine] | 75 fold | reduced susceptibility | 4 | modest decrease; also recorded: reduced susceptibility | greater than 250 fold |
| Cc1ccnc2c1NC(=O)c1cccnc1N2C1CC1 [nevirapine] | greater than 800 fold | reduced susceptibility | 530 | significant decrease; also recorded: reduced susceptibility | greater than 800 fold |
